Measured values reported in patent US20080139534A1, “Bisbenzamidines and bisbenzamidoximes for the treatment of human African trypanosomiasis” (XAVIER UNIVERSITY OF LOUISIANA, priority 2006, published 2008).
Like-named read-outs stand apart in the source and are kept apart here.

Tests used:
calf thymus DNA = test: Thermal denaturation study, DNA binding affinity (ΔTm); conditions: 1:5 compound to base pair ratio;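 further: shift in midpoint melting temperature of calf thymus DNA thermal denaturation curves caused by compound binding, values averaged over at least two determinations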
Method: (§1) The binding affinity was measured by determining the change in the midpoint (Tm) of the thermal denaturation curves of calf thymus DNA as well as poly(dA-dT) at a 1:5 compound to base pair ratio.

[1] = test system: T. b. brucei Lab 110 EATRO; test: In vitro trypanocidal activity, bloodforms in HMI-18 medium, Coulter counts; type: cell-based, Trypanosoma brucei brucei; conditions: Trypanosoma brucei, read-out: Lab 100 EATRO IC50
Method: (§2) The compounds were tested against trypanosome isolates grown as blood forms in HMI-18 medium containing 20% horse serum in 24 well microplates at 37° C. in 5% CO2. Wells were inoculated with 1×10^5 trypanosomes. […] One-half the volume was replaced daily. Cell counts were made daily with a Coulter Counter, Model Z1 (Beckman Coulter, Miami, Fla., USA). Cells were diluted with Isoton I buffer (Beckman Coulter) and the aperture was standardized at 5.14 μm. Background checks were performed daily on 1:10 dilutions of medium. Counts, normalization, and coincident counts were accounted for by the standardized Coulter analysis program. Occasionally, hemocytometer counts were performed as a check on the validity of the Coulter program. IC50 values were determined after 48 h from semi-log plots and the values are the result of duplicate determinations. Initially a broad concentration curve was used and then a close concentration curve from which IC50 values were determined. Assays were done in duplicate and each point was the average of the two. Control cells grew to 5×10^6/ml.
(§3) Coulter counts were made daily and IC50 values determined after 48 hours exposure.

poly(dA-dT) = test: Thermal denaturation study, DNA binding affinity (ΔTm); conditions: 1:5 compound to base pair ratio;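 further: shift in the midpoint temperature of the thermal melting curve of poly(dA-dT), each value the mean of two or more independent determinations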
Method: as §1

[2] = test system: T. b. rhodesiense KETRI 2538; test: In vivo efficacy in infected mice, clinical isolate; set-up: species or system Trypanosoma brucei rhodesiense
Method: (§4) Female Swiss-Webster mice (weight, 20 g) were infected (intraperitoneally) with 2.5×10^5 trypanosomes from rat blood, and the infection was allowed to develop for 24 h before drug treatment was begun. Groups of three mice each were injected (intraperitoneally) with each drug concentration. All of the experiments included a group of untreated controls. […] Animals were monitored weekly for parasites in tail vein blood smears. Mice were considered cured if they survived more than 30 days after the death of the last control with no parasites in tail vein blood smears. MSD (mean survival in days) was also recorded for each group. It is the average time of survival of the animals in the group, exclusive of cured animals.
(§5) Mice were infected on day 1 with 2.5×10^5 trypanosomes and the infections allowed to progress 24 h. prior to dosing. Animals were dosed 1×/day i.p for 3 days. Cured animals survived >30 days beyond the death of untreated, infected controls. MSD=mean survival in days exclusive of cured animals. Dose as mg/kg/day.

[3] = test system: T. b. rhodesiense KETRI 243; test: In vitro trypanocidal activity, bloodforms in HMI-18 medium, Coulter counts; type: cell-based, Trypanosoma brucei rhodesiense; conditions: Trypanosoma brucei, RHODESIENSE, 48 h exposure
Method: as §2, §3

[4] = test system: T. b. brucei Lab 110 EATRO; test: In vivo efficacy in infected mice; set-up: species or system Trypanosoma brucei brucei; conditions: mice
Method: Female Swiss-Webster mice (weight, 20 g) were infected (intraperitoneally) with 2.5×10^5 trypanosomes from rat blood, and the infection was allowed to develop for 24 h before drug treatment was begun. Groups of three mice each were injected (intraperitoneally) with each drug concentration. All of the experiments included a group of untreated controls. […] Parasitemia of animals dying of infection averaged 0.5-1.0×10^9/mL of blood. These infections are very predictable and daily counts were not done because of the labor involved. […] Animals were monitored weekly for parasites in tail vein blood smears. Mice were considered cured if they survived more than 30 days after the death of the last control with no parasites in tail vein blood smears. MSD (mean survival in days) was also recorded for each group. It is the average time of survival of the animals in the group, exclusive of cured animals.
Mice were infected with 250,000 parasites and dosing commenced 24 h. post infection. Mice were separated into groups of three and given single i.p doses for 3 days unless otherwise noted. Infected untreated controls were used for each experiment. Mice were considered cured if surviving more than 30 days beyond death of controls without parasites in tail vein blood smears. MSD, mean survival in days, exclusive of cured animals.

[5] = test system: T. b. rhodesiense KETRI 1992; test: In vivo efficacy in infected mice, clinical isolate; set-up: species or system Trypanosoma brucei rhodesiense
Method: as §4, §5

[6] = test system: T. b. rhodesiense KETRI 2002; test: as above; set-up: species or system Trypanosoma brucei rhodesiense
Method: as §4, §5

[7] = 25 mg/kg i.p., single dose (1x)
[8] = KETRI 1992, 5 mg/kg/day i.p. for 3 days
[9] = KETRI 1992, 10 mg/kg/day i.p. for 3 days
[10] = KETRI 1992, 15 mg/kg/day i.p. for 3 days

## CCCCCc1nc(-c2ccc(NC(=O)CCCC(=O)Nc3ccc(-c4noc(CCCCC)n4)cc3)cc2)no1 [TH743, N,N′-Bis[4-(5-Pentyl-1,2,4-oxadiazol-3yl)phenyl]pentanediamide]
other
  melting point: 171 to 173 °C

## O=C(CCCC(=O)Nc1ccc(-c2noc(-c3ccccc3)n2)cc1)Nc1ccc(-c2noc(-c3ccccc3)n2)cc1 [TH747, N,N′-Bis[4-(5-Phenyl-1,2,4-oxadiazol-3yl)phenyl]pentanediamide]
other
  melting point: 255 to 257 °C

## NNC(=O)c1ccc(N2CCN(c3ccc(C(=O)NN)cc3)CC2)cc1 [compound 0117, 4,4′-(1,4-Piperazinediyl)bisbenzenecarboxhydrazide]
Calf thymus DNA
  DNA Binding Δ Tm Calf thymus: 0.1 °C
[1]; 48 h
  IC50: 240 nM
poly(dA-dT)
  DNA Binding Δ Tm Poly (dA-dT): 0.0 °C
other
  melting point: > 300 °C

## N=C(N)c1ccc(NC(=O)CCCCC(=O)Nc2ccc(C(=N)N)cc2)cc1 [compound 0702]
[2]; KETRI 2538, 5 mg/kg/day i.p. for 3 days
  MSD: >30 days
[2]; KETRI 2538, 10 mg/kg/day i.p. for 3 days
  MSD: >30 days
[2]; KETRI 2538, 15 mg/kg/day i.p. for 3 days
  MSD: >30 days
Calf thymus DNA
  DNA Binding Δ Tm Calf thymus: 8.7 °C
[3]
  IC50: 2.45 nM
[4]; 1 mg/kg/day i.p. for 3 days
  # Cured/#Treated (%): 0/3
  MSD: 6.7 days
[4]; 5 mg/kg/day i.p. for 3 days
  MSD: >30 days
[4]; 10 mg/kg/day i.p. for 3 days
  MSD: >30 days
[4]; 15 mg/kg/day i.p. for 3 days
  MSD: >30 days
[4]; [7]
  # Cured/#Treated (%): 0/3
  MSD: 22 days
[4]; 25 mg/kg/day i.p., 2 doses (2x)
  MSD: >30 days
[1]; 48 h exposure, bloodforms
  IC50: 2.8 nM
poly(dA-dT)
  DNA Binding Δ Tm Poly (dA-dT): 14.4 °C
[5]; [8]
  #Cured/Total: 0/3
  MSD: 16.5 days
[5]; [9]
  #Cured/Total: 0/3
  MSD: 17.5 days
[5]; [10]
  #Cured/Total: 0/3
  MSD: 22 days
[6]; KETRI 2002, 10 mg/kg/day i.p. for 3 days
  MSD: >30 days
[6]; KETRI 2002, 15 mg/kg/day i.p. for 3 days
  MSD: >30 days
[6]; KETRI 2002, 25 mg/kg/day i.p. for 3 days
  MSD: >30 days

## N/C(=N\OC(=O)c1ccccc1)c1ccc(NC(=O)CCCC(=O)Nc2ccc(/C(N)=N/OC(=O)c3ccccc3)cc2)cc1 [TH746, N,N′-Bis[4-(N-Phenylcarbonyloxyamidino)phenyl]pentanediamide]
other
  melting point: 253 to 255 °C

## Cc1nc(-c2ccc(NC(=O)CCCC(=O)Nc3ccc(-c4noc(C)n4)cc3)cc2)no1 [TH728, N,N′-Bis[4-(5-Methyl-1,2,4-oxadiazol-3yl)phenyl]pentanediamide]
other
  melting point: 235 to 237 °C
